The source made the active and inactive calls.
Experiments:
[1] = Luminescence Cell-Based Dose Response HTS to Identify Activators of Luciferase Translation or Activity in H4 […] Cells. [Related pubchem assays: 1829 (Project Summary), 1814 (Primary HTS)]; format: functional
[2] = ZM109 Env clade C HIV-1 fusion inhibitors, dose response, HeLa effector, CEM target cells, luciferase, cherry-pick (AID 652058); format: functional, cell-based
HEK293 [3] = assay: cells; conditions: Homo sapiens
[4] = off-target signal loss in HeLa-CEM21 co-culture – HeLa F-luc CTL cells, cherry-picked, counter-screen for HIV-1 Env fusion inhibitor project, dose response (AID 652040); format: functional, cell-based;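 further: potency for signal decrease marking cytotoxic or nonspecific inhibition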
H4 = assay: Luminescence Cell-Based Dose Response HTS to Identify Activators of 5'UTR Stem-Loop Driven Prion Protein mRNA Translation in H4 Neuroglioblastoma Cells. [Related pubchem assays: 1829 (Project Summary), 1814 (Primary HTS)]; format: functional; conditions: Homo sapiens
HEK293 [5] = assay: cells; conditions: Homo sapiens; remark: listed apart in the source
[6] = CEM21 lymphoblast cell cytotoxicity, dose response, cytotoxicity control for viral fusion inhibitor project, CellTiter-Glo luminescence, cherry-picked (AID 652042); format: functional, cell-based;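 further: potency for signal decrease meaning cytotoxicity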
[7] = inhibitors of HIV Env-driven cell fusion, dose response, cherry-pick (AID 652057); format: functional, cell-based
[8] = target: T1, Ubiquitin-conjugating enzyme E2 N (Homo sapiens, UniProt P61088); format: functional;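 further: Dose-response confirmation in a TR-FRET assay detecting UBC13-driven polyubiquitin chain formation, inhibition measured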
T1 sequence (P61088 whole entry): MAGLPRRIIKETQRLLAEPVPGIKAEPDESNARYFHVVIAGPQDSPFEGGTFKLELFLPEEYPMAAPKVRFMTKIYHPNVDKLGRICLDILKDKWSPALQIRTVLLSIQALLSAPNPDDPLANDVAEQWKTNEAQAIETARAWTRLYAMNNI

[9] = inhibitors of clade B AD8 Env fusion, dose response, cell-based, cherry-pick (AID 652062); format: functional;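 further: luciferase signal from cell-cell fusion driven by HIV-1 clade B AD8 Env; potency is for inhibitors of fusion seen as a drop in luminescence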
Melanocortin receptor 4 = Melanocortin receptor 4 (Homo sapiens, UniProt P32245); format: functional, cell-based;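 further: Cell-based assay with luminescence read-out, confirmatory dose-response testing for agonist activity of biased ligands at MC4R; human U2OS cells with tagged receptor and beta-arrestin; potency of agonists that increase receptor coupling to beta-arrestin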
Chain of Melanocortin receptor 4 (P32245 whole entry): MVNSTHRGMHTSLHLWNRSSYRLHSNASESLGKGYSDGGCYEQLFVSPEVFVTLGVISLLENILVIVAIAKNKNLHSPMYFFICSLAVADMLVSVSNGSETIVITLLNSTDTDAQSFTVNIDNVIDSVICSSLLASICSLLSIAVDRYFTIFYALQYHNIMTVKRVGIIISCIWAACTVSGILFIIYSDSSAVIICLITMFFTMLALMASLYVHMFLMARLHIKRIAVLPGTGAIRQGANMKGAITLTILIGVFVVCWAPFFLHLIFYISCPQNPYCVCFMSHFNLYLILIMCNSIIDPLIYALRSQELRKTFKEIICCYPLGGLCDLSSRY

[10] = Luminescence Cell-Based Dose Confirmation HTS to Identify Activators of 5'UTR Stem-Loop Driven Alpha-Synuclein mRNA Translation in H4 Neuroglioblastoma Cells. [Related pubchem assays: 1829 (Project Summary), 1814 (Primary HTS)]; format: functional
[11] = target: Fructose-bisphosphate aldolase (Mycobacterium tuberculosis, UniProt P9WQA3); assay: Fluorescence-based biochemical high throughput dose response assay for inhibitors of the fructose-bisphosphate aldolase (FBA) of M. tuberculosis.; format: functional
Chain of Fructose-bisphosphate aldolase (P9WQA3 whole entry): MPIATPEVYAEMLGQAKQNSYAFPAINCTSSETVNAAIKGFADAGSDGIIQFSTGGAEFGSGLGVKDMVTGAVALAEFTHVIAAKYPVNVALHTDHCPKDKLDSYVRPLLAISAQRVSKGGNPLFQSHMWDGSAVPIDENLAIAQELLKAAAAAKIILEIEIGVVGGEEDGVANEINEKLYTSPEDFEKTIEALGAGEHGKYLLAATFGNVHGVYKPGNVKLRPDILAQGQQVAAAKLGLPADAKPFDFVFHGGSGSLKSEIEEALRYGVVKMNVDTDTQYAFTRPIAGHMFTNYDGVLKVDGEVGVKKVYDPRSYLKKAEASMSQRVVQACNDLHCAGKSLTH

[12] = target: T2, DNA repair and recombination protein RAD54-like (Homo sapiens, UniProt Q92698); assay: inhibitors of human RAD54 branch migration, confirmation, biochemical, fluorescence, cherry-picked samples, dose series (AID 651657); format: functional
T2 sequence (Q92698 whole entry): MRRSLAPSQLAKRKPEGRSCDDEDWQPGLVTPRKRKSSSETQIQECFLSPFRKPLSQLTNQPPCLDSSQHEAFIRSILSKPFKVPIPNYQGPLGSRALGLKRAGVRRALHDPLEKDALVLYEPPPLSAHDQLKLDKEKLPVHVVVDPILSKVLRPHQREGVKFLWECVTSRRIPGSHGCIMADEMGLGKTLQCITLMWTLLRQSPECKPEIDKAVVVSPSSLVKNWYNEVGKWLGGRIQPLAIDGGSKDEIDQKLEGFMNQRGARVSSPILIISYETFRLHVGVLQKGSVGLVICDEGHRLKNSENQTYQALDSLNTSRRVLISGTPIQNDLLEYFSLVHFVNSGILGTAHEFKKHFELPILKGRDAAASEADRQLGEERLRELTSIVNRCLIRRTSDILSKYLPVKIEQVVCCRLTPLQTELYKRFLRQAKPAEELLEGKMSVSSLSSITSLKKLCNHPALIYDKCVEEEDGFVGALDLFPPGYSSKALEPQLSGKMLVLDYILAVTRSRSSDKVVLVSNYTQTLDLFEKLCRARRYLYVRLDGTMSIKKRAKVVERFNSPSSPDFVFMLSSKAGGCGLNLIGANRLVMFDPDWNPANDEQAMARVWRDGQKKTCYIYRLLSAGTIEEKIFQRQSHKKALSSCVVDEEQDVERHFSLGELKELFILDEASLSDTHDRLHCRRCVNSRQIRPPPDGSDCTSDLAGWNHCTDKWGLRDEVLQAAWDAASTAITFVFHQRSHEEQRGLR

[13] = target: DNA repair protein RAD52 homolog (Homo sapiens, UniProt P43351); format: functional, biochemical
Chain of DNA repair protein RAD52 homolog (P43351 whole entry): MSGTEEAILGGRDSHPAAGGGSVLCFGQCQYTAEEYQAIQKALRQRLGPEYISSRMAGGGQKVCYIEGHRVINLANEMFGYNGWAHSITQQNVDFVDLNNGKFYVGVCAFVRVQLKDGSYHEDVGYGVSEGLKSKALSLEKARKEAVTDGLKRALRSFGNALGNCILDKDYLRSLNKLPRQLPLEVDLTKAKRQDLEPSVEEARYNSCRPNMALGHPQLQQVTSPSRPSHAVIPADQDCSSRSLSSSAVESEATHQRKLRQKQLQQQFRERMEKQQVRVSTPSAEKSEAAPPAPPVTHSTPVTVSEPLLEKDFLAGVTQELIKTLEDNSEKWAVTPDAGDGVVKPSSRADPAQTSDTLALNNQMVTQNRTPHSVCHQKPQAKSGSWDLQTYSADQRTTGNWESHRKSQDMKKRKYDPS

[14] = LMP1-driven NF-kB reporter inhibition, dose response, cell-based, luciferase reporter, luminescence, dry powder, set 2 (AID 624376); format: functional
[15] = HEK293T cytotoxicity, dose response, cytotoxicity control for miR-122 modulator project, cell-based, inhibitor set, cherry-pick, set 2 (AID 720697); format: functional
[16] = miR-122 activators in hepatoma reporter cells, dose response, cell-based, Huh7 psiCHECK-miR122, Renilla luciferase, cherry-picked (AID 651956); format: functional;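 further: huh7 hepatoma cells stably carrying a psiCHECK-2 miR-122 sensor plasmid; renilla luciferase signal reporting endogenous miR-122 activity after 48 h compound exposure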
cells [17] = format: functional, cell-based
[18] = target: T3, Trace amine-associated receptor 1 (Homo sapiens, UniProt Q96RJ0); assay: Fluorescence-based cell-based high throughput dose response assay to identify agonists of the human trace amine associated receptor 1 (TAAR1).; format: functional
T3 sequence (Q96RJ0 whole entry): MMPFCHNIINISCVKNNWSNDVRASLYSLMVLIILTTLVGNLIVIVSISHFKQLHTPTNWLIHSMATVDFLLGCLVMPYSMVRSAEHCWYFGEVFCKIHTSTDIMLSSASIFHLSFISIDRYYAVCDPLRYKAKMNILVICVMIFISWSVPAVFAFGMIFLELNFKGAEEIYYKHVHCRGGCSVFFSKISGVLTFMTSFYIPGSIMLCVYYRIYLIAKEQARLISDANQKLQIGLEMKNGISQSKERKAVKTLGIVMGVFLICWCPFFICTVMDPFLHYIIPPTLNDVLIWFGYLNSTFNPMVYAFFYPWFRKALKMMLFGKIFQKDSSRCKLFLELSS

cells [19] = format: functional, cell-based; remark: listed apart in the source
[20] = target: T3, Trace amine-associated receptor 1; assay: Counterscreen for agonists of the human trace amine associated receptor 1 (hTAAR1): Fluorescence-based cell-based high throughput dose response assay to identify hTAAR1 agonist that also desensitize TAAR1 receptor response.; format: functional
[21] = cytotoxicity toward NIH3T3 fibroblasts, dose response, counter-screen, cell-based, ATP luminescence, mouse fibroblasts (AID 2010); format: functional;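 further: cells exposed to compound for about 90 hours before reading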
[22] = inhibitors of intracellular T. cruzi replication, confirmation, NIH3T3 host cells, beta-gal luminescence (AID 2044); format: functional, cell-based;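 further: intracellular parasites grown in NIH/3T3 mouse fibroblasts as host cells; luminescent beta-galactosidase reporter signal from transgenic T. cruzi replicating inside host cells; inhibitors lower the luminescence signal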

## Cc1c(CCOC(=O)CC23CC4CC(CC(C)(C4)C2)C3)sc[n+]1CC(=O)c1ccccc1
[1]
  EC50: > 120 µM (not active)
[2]
  AC50: 3.85 µM (active)
HEK293 [3]
  EC50: > 59.6 µM (inactive)
[4]
  AC50: 4.35 µM (active)
H4
  EC50: > 120 µM (not active)
HEK293 [5]
  EC50: > 59.6 µM (inactive)
[6]
  AC50: 16.8 µM (active)
[7]
  AC50: 3.05 µM (active)
[8]
  IC50: > 20 µM (inactive)
[9]
  AC50: 12.7 µM (active)
Melanocortin receptor 4
  EC50: > 89.2 µM (inactive)
[10]
  EC50: > 120 µM (not active)

## CC(NNC(=S)N1CCCCCC1)c1ccc2ccccc2n1 (configuration not stated)
[6]
  AC50: 1.59 µM (active)

## CN(C)c1ccc(-c2ccnc3c2CC(C)(C(=O)NCc2cccs2)O3)cc1 (configuration not stated)
[11]
  IC50: 0.56 µM (active)

## COc1ccc(-c2cc3nc(NCCN4CCCC4)n(C)c(=O)c3s2)cc1OC
[12]
  AC50: 11.6 µM (active)
[13]
  AC50: 2.43 µM (active)

## COc1cccc(S(=O)(=O)N(C)C[C@@H]2Oc3cc(C4=CCCCC4)ccc3S(=O)(=O)N([C@H](C)CO)C[C@H]2C)c1
[14]
  AbsAC35: 85.29 µM
[15]
  AC50: 0.502 µM (active)
[16]
  AC50: 30.2 µM (active)

## Cc1ccccc1C(=O)N[C@H](C(=O)N1CCC[C@H]1C(=O)NCCc1ccccc1Cl)c1ccccc1
Cells [17]
  EC50: > 29.9 µM (inactive)
[18]
  EC50: 6.12 µM (active)
Cells [19]
  IC50: > 29.9 µM (inactive)
[20]
  IC50: 7.72 µM (active)

## CCCN(CCC)CCCNC(=S)Nc1ccc2nc(N3CCN(C)CC3)cc(C)c2c1
[21]
  EC50: > 60 µM (not active)
[12]
  AC50: 31.9 µM (active)
[22]
  EC50: 2.24 µM (active)
[13]
  AC50: 5.96 µM (active)

From ChEMBL document CHEMBL1201862, “PubChem BioAssay data set” (2004)
